System: COLO679 cell, which is a human melanoma cell line
Assay: Cancer cell killing test (cell proliferation index)
Type: cell-based
Details: COLO679 cells; anticancer drug added instead of application of alternating magnetic field

With `COc1cccc2c1C(=O)c1c(O)c3c(c(O)c1C2=O)C[C@@](O)(C(=O)CO)C[C@@H]3O[C@H]1C[C@H](N)[C@H](O)[C@H](C)O1` [free anticancer drug, doxorubicin] the “change of cell proliferation index (CPI)” value was “the decrease amount of the CPI was smaller than in the case in which the sample in Example 1 was used”.

Source: patent US20150352209A1, “NANOFIBER HAVING SELF-HEATING […] BIOLOGICALLY ACTIVE SUBSTANCE RELEASE PROPERTIES, PRODUCTION METHOD FOR SAME, AND NONWOVEN FABRIC HAVING SELF-HEATING […] BIOLOGICALLY ACTIVE SUBSTANCE RELEASE CAPABILITIES” (NATIONAL INSTITUTE FOR MATERIALS SCIENCE, priority 2013, published 2015)
